Assay results published in PMC6212398, “Competing protein-protein interactions regulate binding of Hsp27 to its client protein tau” (Nature Communications, 2018).
“Also recorded” adds a separate entry of the source. Values belong to the substance of their own block, whether it stands above or below them. Ends that are not written are not given here.

Legend:
[1] = Thermal shift assay (differential scanning fluorimetry); format: physicochemical; conditions: DSF, 0.3 mg/mL in 50 mM NaPi pH 7.4, 700 mM NaCl, 50 mM LiCl, SYPRO Orange
Method: Samples of Hsp27 (25 µL; 0.3 mg/mL) in DSF buffer (50 mM NaPi pH 7.4, 700 mM NaCl, 50 mM LiCl) with a 5× final concentration of SYPRO Orange (Sigma) were placed into a white 96-well plate with optically clear caps. Melt curves were acquired on a Stratagene Mx300P RT-PCR using the SYPRO filter set. Samples were heated from 25 to 95 °C in 1 °C increments for 2 min, cooled to 25 °C at each cycle, and fluorescence was measured. The melting temperature was determined using a Boltzmann fit in Prism.

0N4R tau = assay: Tau aggregation assay (thioflavin T fluorescence), 0N4R; format: biochemical, human; conditions: 10 μM tau, chaperone 1:1 molar ratio (10 μM), heparin 44 µg/mL, 37 °C, Dulbecco's PBS pH 7.4
Method: (§1) Aggregation assays were performed as previously described. Briefly, all proteins were dialyzed overnight at 4 °C into assay buffer (Dulbecco’s PBS pH7.4, 2 mM MgCl2, 1 mM DTT). 0N4R or K18 Tau (10 μM) was pre-incubated in the presence/absence of chaperones (5–20 μM) for 30 min at 37 °C. Thioflavin T (Sigma) at a final concentration of 10 μM was added and aggregation was induced by the addition of a freshly prepared heparin sodium salt solution (Santa Cruz) at a final concentration of 44 µg/mL. For non-induced controls, assay buffer was added in place of heparin solution. The aggregation reaction was carried out at 37 °C with continuous shaking and monitored via Thioflavin T fluorescence (excitation = 444 nm, emission = 485 nm, cutoff = 480 nm) in a Spectramax M5 microplate reader (Molecular Devices). Readings were taken every 5 min for a minimum of 24 h. Baseline curves of non-induced controls (three replicates) were subtracted from induced samples (three replicates).

K18 tau [2] = assay: 15N K18 HSQC / TROSY-HSQC NMR with unlabeled Hsp27 constructs; format: binding, human; conditions: 50 µM 15N K18, 100 µM Hsp27 construct (2:1), 10 °C, TROSY titration
Method: For ^15N K18 HSQC NMR experiments, all proteins were dialyzed overnight into NMR buffer (25 mM HEPES pH 7.4, 10 mM KCl, 5 mM MgCl2, 1 mM TCEP, 10% (v/v) D2O). Then, samples containing 50 μM ^15N-labeled tau and 50 or 100 μM unlabeled chaperone in NMR buffer were prepared. 2D HSQC spectra were acquired at 10 °C on a Bruker Avance AV800 spectrometer equipped with a cryoprobe. 16 scans were acquired per t1 value and spectral widths of 2100 Hz and 10,416 Hz were used in the ^1H and ^15N dimensions, respectively. Spectra were processed using rNMR and Sparky based on deposited tau assignments (Barre 2013, BioMagResBank accession number 19253). Signal intensity ratios were calculated using Prism, by dividing the intensity of chaperone-bound peaks by intensity of the same peak in the unbound spectra.
The ^15N TROSY HSQC experiments were performed on a Bruker Avance 800 MHz spectrometer equipped with the TXO cryogenic probe at 283 K. The [U-^15N] K18 proteins were dissolved at a concentration of 0.05–0.15 mM in 25 mM Hepes, 10 mM KCl, 5 mM MgCl2, 1 mM TCEP at pH 7.0 and titrated with the Hsp27 proteins in the same buffer. The ^1H–^15N TROSY HSQC experiments were performed with 2048 direct (^1H) and 512 indirect (^15N) points with the spectral width of 16 ppm and 36 ppm, respectively. All NMR spectra were processed by Topspin 3.1, and analyzed with Sparky (Goddard and Kneller, SPARKY 3-NMR Assignment and Integration Software. University of California, San Francisco, CA).

Hsp27 ACD [3] = molecular target: T1, Hsp27 ACD (Homo sapiens, UniProt P04792); assay: ITC of IPV-derived peptides with purified Hsp27 ACD; format: binding; conditions: Fig. 1d, 25 °C, one-site model; for N (binding stoichiometry): peptide (1 mM) into Hsp27 ACD (100 µM)
T1 construct: Hsp27 ACD (residues Q80–S176); made in house; host or cells: E. coli BL21 (DE3)
T1 sequence (P04792 80-176): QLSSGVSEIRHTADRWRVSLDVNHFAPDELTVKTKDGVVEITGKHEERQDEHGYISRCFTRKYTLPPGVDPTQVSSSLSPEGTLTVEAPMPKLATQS
Method: (§2) For experiments with BAG3, proteins were dialyzed overnight against ITC buffer (25 mM Hepes, 5 mM MgCl2, 100 mM KCl, pH 7.5). For experiments with peptides, sHSPs were dialyzed overnight against SEC buffer, and peptides were dissolved in dialysis buffer. Concentrations were determined using BCA assays (Thermo Scientific), and the ITC experiment was performed with a MicroCal ITC200 (GE Healthcare) at 25 °C. In BAG3 experiments, sHSP (200 µM) in the syringe was titrated into a 10 μM cell solution of BAG3 protein. For peptide binding experiments, peptide (1 mM) was titrated into a cell containing Hsp27 proteins (100 µM). Calorimetric parameters were calculated using Origin® 7.0 software and fit with a one-site binding model.

Hsp27 WT = molecular target: T2, Hsp27 WT (Homo sapiens, UniProt P04792); assay: ITC of optimized IPV peptide with Hsp27 WT; format: binding; conditions: Fig. 4b, peptide (1 mM) into full-length Hsp27 WT (100 µM), 25 °C, mean ± SEM, minimum of three independent experiments
T2 construct: Vectors for the expression of full-length human Hsp27; made in house; host or cells: E. coli BL21 (DE3)
T2 sequence (P04792 whole entry): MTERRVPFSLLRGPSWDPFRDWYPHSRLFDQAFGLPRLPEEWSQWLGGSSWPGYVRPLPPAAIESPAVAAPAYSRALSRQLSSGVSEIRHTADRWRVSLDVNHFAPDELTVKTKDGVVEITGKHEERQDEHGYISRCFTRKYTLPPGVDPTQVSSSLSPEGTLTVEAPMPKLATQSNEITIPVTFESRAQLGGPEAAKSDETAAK
Method: as §2

ΔNTD GPG = molecular target: T3, ΔNTD GPG (Homo sapiens, UniProt P04792, I181G/V183G); assay: ITC of optimized IPV peptide with Hsp27 ΔNTD GPG; format: binding; conditions: Fig. 4b, peptide (1 mM) into ΔNTD GPG (100 µM), 25 °C, mean ± SEM, minimum of three independent experiments
T3 construct: For all other Hsp27 constructs (GPG, ΔNTD consisting of residues 80–205); inferred from the PMCSG7 vector and Ni-NTA purification) (N); made in house; host or cells: E. coli BL21 (DE3)
T3 sequence (P04792 80-205 I181G/V183G limits assumed): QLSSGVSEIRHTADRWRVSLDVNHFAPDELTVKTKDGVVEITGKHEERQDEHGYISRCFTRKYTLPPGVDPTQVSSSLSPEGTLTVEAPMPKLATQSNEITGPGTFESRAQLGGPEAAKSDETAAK
Method: as §2

Hsp27 3D = molecular target: T4, Hsp27 3D (Homo sapiens, UniProt P04792, S15D/S78D/S82D); assay: ITC of optimized IPV peptide with Hsp27 3D; format: binding; conditions: Fig. 4b, peptide (1 mM) into Hsp27 3D (100 µM), 25 °C, mean ± SEM, minimum of three independent experiments
T4 construct: Sample aggregation curves of tau constructs with full-length Hsp27; made in house; host or cells: E. coli BL21 (DE3)
T4 sequence (P04792 whole entry S15D/S78D/S82D): as the sequence (P04792 whole entry) above, with S15D, S78D, S82D counted along it
Method: as §2

K18 tau [4] = assay: Competitive ELISA on immobilized K18 tau saturated with biotin-labelled Hsc70; set-up: species or system human; conditions: Supplementary Figure 3A, binding not saturable, read-out: IC50 (estimated), competition with biotin-labelled Hsc70 for immobilized K18 tau
Text: B. Hsp27 ACD binding to K18tau cannot be measured by ITC
A. Hsp27 ACD has a weak affinity for tau,by ELISA
C. The interaction is also estimated tobe weak by NMR titration[Competitor], uM
D. NMR titration of VQIVYK peptide into
Supplementary Figure 3. Hsp27 ACD has a weak affinity for K18 tau. (A) K18 tau was immobilized onto ELISA plates and saturated with biotin-labelled, human Hsc70, which shares binding sites with Hsp27 ACD in the MTBRs. Competition with unlabelled Hsc70 (control) or Hsp27 ACD was then carried out. Hsp27 ACD was estimated to have an IC50 > 100 µM. (B) Binding of Hsp27 ACD to K18 tau was not able to be measured by ITC, due to solubility limits. (C) NMR titrations (see Figure S5A) also […]
interaction. CSPs of Hsp27 ACD in the presence of 3.3-fold molar excess of PHF6* peptide (500 µM).
(also on this page, place not known: [Competitor], OD450 tau, K18 tau to be by 4 normalized CSP [((δN/5) +γH ); ppm] 2 0.52 CSP (PPM) titration Hsp27) […]

K18 tau [5] = assay: Tau aggregation assay (thioflavin T fluorescence), K18; format: biochemical, human; conditions: 10 μM tau, chaperone 1:1 molar ratio (10 μM), heparin 44 µg/mL, 37 °C, Dulbecco's PBS pH 7.4
Method: as §1

BAG3 = assay: Interaction of Hsp27 ACD with BAG3 by FCPIA; format: binding; conditions: Supplementary Figure 4
Hsp27 ACD [6] = molecular target: T1, Hsp27 ACD; assay: NMR titration of VQIVYK peptide into 1H-15N Hsp27 ACD; format: binding; conditions: 1H-15N ACD spectra, 3.3-fold molar excess of peptide (500 µM), Supplementary Figure 3D
[7] = Fig. 4a, Boltzmann fit, mean ± SD of three independent experiments

Binding to 15N K18 tau by NMR (peak broadening / CSPs) (K18 tau [2]): binds to K18’s aggregation motifs
Substance: 3D: pseudo-phosphorylation mutant; S15, S78 and S82 replaced with aspartate
TM ([1]; Supplementary Figure 8A): 72.2 ± 0.85 °C
Effect on aggregation of 0N4R tau (ThT fluorescence) (0N4R tau): retains the ability to prevent tau aggregation

N (binding stoichiometry) (Hsp27 ACD [3]): 0.65
Substance: EIAIPVTHE [T180A]

N (binding stoichiometry) (Hsp27 ACD [3]): 0.90
Kd (Hsp27 ACD [3]; peptide (1 mM) titrated into Hsp27 ACD (100 µM), SEC buffer (50 mM sodium phosphate, 100 mM NaCl), mean ± SEM, minimum of three independent experiments, ND = no detectable binding): > 25 µM
Substance: EITIPVTFE [Hsp27 IPV]

Kd (Hsp27 WT): does not bind
Kd (ΔNTD GPG): 14.3 µM
Kd (Hsp27 3D): > 50 µM
Substance: EITIPVTHE [Hsp27 IPV H]

Binding to 15N K18 tau by NMR (peak broadening / CSPs) (K18 tau [2]): bound to K18
Substance: GPG: Hsp27 with isoleucine and valine of the IPV mutated to glycine
TM [1, 7]: 66.8 ± 0.3 °C

IC50 (K18 tau [4]): > 100 µM
Binding to 15N K18 tau by NMR (peak broadening / CSPs) (K18 tau [2]): weak and unsaturable
Substance: Hsp27 ACD: α-crystallin domain of human Hsp27 (residues Q80–S176)
Effect on aggregation of 0N4R tau (ThT fluorescence) (0N4R tau): no effect
Effect on aggregation of K18 tau (ThT fluorescence) (K18 tau [5]): no effect

Substance: Hsp27 X: WT Hsp27 cross-linked with gluteraldehyde
Effect on aggregation of 0N4R tau (ThT fluorescence) (0N4R tau): severely compromised
Effect on aggregation of K18 tau (ThT fluorescence) (K18 tau [5]): severely compromised

BAG3 binding (BAG3): deficient in BAG3 binding
Substance: L157A ACD: Hsp27 ACD mutant L157A

Binding to Hsp27 ACD by NMR titration (chemical shift changes) (Hsp27 ACD [6]; listed as VQIVYK peptide): weak interaction; also recorded: weak/no
Substance: VQIVYK [PHF6* peptide, 6-mer PHF6* peptide from tau]
Binding to Hsp27 ACD by NMR titration (chemical shift changes) (Hsp27 ACD [6]): unable to produce saturable chemical shift changes

Binding to 15N K18 tau by NMR (peak broadening / CSPs) (K18 tau [2]): does not
Binding to 15N K18 tau by NMR (peak broadening / CSPs) (K18 tau [2]; listed as full-length Hsp27): no broadening or CSPs
Substance: WT: full-length human Hsp27
TM [1, 7]: 73.1 ± 1.1 °C
TM ([1]; Supplementary Figure 8A): 72.2 ± 1.0 °C
Effect on aggregation of 0N4R tau (ThT fluorescence) (0N4R tau): prevents aggregation
Effect on aggregation of K18 tau (ThT fluorescence) (K18 tau [5]): prevents aggregation

Substance: ΔNTD: Hsp27 with NTD deleted, residues 80–205
Effect on aggregation of 0N4R tau (ThT fluorescence) (0N4R tau): ablated Hsp27’s ability to delay tau aggregation
Effect on aggregation of K18 tau (ThT fluorescence) (K18 tau [5]): ablated Hsp27’s ability to delay tau aggregation
